Tested on: normal human keratinocytes
Assay: Proliferation of normal human keratinocytes cultured as a monolayer (BrdU test; score versus epinephrine)
Format: cell-based
Settings: at 10^-5 M; keratinocyte monolayer; 72 h
Procedure: Study of the effect of 1,3,5-trimethoxybenzene on the proliferation of normal human keratinocytes cultured as a monolayer:
The products are tested on 2nd passage normal human keratinocytes cultured in KGM medium (serum-free defined medium sold by the company Clonetics). The range of concentrations is between 10^-4 M and 10^-7 M. The products are tested twice on 2 different plates.
250 ng/ml epinephrine is employed as positive control of the proliferation.
The products are dissolved in dimethyl sulphoxide (DMSO). A 1×10^-2 M mother solution is prepared in DMSO. The following dilutions are carried out in KGM.
The keratinocytes are seeded at 6000 cells/cm^2. After culturing for 24 h, the product is applied to the cells for 72 h. The medium is replaced after treatment for 48 h.
BrdU kit (Boehringer Mannheim).
On the second day of treatment, a thymidine analogue (BrdU) is added to the culture medium overnight. This analogue makes it possible to label the cells during DNA synthesis. On the third day of treatment, the cells which have incorporated BrdU are identified with an anti-BrdU antibody.
For each product, the score (see table) is attributed as a function of the result obtained with respect to epinephrine (positive control for the proliferation).

For `COc1cc(OC)cc(OC)c1` [1,3,5-Trimethoxybenzene, 1,3,5-trimethoxybenzene], the Proliferative effect was “induces proliferation of the keratinocytes”.

From patent US6054137A, “Promoting epidermal renewal with phloroglucinol” (Societe L'Oreal S.A., priority 1997, dated 2000)
